Literature values as cited in patent US20150005255A1, “COSMETIC COMPOSITION, FORMULATION IN GEL-CREAM AND ITS USE” (EMS S.A., priority 2013, published 2015).

Tests used:
[1] = system: lysosomal enzymes; conditions: in skin care products
[2] = system: localized lipodystrophy

Substance | reduction of lysosomal activity [1] | volume of observed areas with cellulite ([2]; formula of Xantalgosil C applied twice daily for one month, 25 volunteers) | activation of adipocyte lipolysis ([2]; in vivo)
Escin | up to 30% |  | 
acefylline methylsilanol mannuronate [Xantalgosil C] |  | reduction of volume in observed areas | outstanding action
